# Values quoted from earlier work as cited in patent US20100196363A1, “CANCER TREATMENT COMBINATION THERAPY COMPRISING VINFLUNINE AND TRASTUZUMAB” (Pierre Fabre Medicament, priority 2007, published 2010).
# System: breast cancer
# Details: vinflunine alone, same dosage, regimen and period; breast cancer patients
smiles,measurement,value
"CC[C@]12C=CCN3CC[C@@]4(c5cc([C@@]6(C(=O)OC)C[C@@H]7C[C@@H](C(C)(F)F)CN(Cc8c6[nH]c6ccccc86)C7)c(OC)cc5N(C)[C@H]4[C@@](O)(C(=O)OC)[C@@H]1OC(C)=O)[C@@H]32 [Vinflunine, 20′,20′difluoro-3′,4′-dihydrovinorelbine]",Overall Response (RECIST),about 30%
